# Assays:
# [1] = test system: phenyl-para-quinone induced writhing; assay: phenyl-para-quinone writhing assay in mice (analgesia); format: in vivo; settings: 20 mg/kg s.c., expressed as % decrease in writhing
# Excerpt: Exptl. […] Presented in Table I is the analgesic effect of one of the compounds of the invention expressed as the % decrease in writhing at a given dose.
# [2] = test system: Scopolamine Induced Memory Deficit; assay: Dark Avoidance Assay (reversal of scopolamine induced memory deficit); format: in vivo; settings: mice, retest after 24 hours
# Description: In this assay, mice are tested for their ability to remember an unpleasant stimulus for a period of 24 hours. A mouse is placed in a chamber that contains a dark compartment; a strong incandescent light drives it to the dark compartment, where an electric shock is administered through metal plates on the floor. The animal is removed from the testing apparatus and tested again, 24 hours later, for the ability to remember the electric shock. If scopolamine, an anticholinergic that is known to cause memory impairment, is administered before an animal's initial exposure to the test chambers, the animal re-enters the dark compartment shortly after being placed in the test chamber 24 hours later. The effect of scopolamine is blocked by an active test compound, resulting in a greater interval before re-entry into the dark compartment. The results for an active compound are expressed as the percent of a group of animals in which the effect of scopolamine is blocked, as manifested by an increased interval between being placed in the test chamber and re-entering the dark compartment. The activity in the assay of some of the compounds of the invention are given below in Table 2.
structure (smiles),measurement,setting,value
"O=C1CCCN1Nc1ccncc1 [1-(4-pyridinylamino)-2-pyrrolidinone, 1-(4-Pyridinylamino)-2-pyrrolidinone]",% Inhibition of Writhing,[1],-56%
CCCN(c1ccncc1)N1CCCC1=O.O=C(O)C(=O)O [1-(Propyl-4-pyridinylamino)-2-pyrrolidinone oxalate],% of Animals With Scopolamine Induced Memory Deficit Reversal,[2]; .3 mg/kg s.c.,33%
"Nc1c2c(nc3ccccc13)CCCC2 [Tacrine, reference compound]",% of Animals With Scopolamine Induced Memory Deficit Reversal,[2]; .63 (mg/kg of body wt) s.c.,13%

# — patent US4994472A, “1-(pyridinylamino)-2-pyrrolidinones as pain relievers” (Hoechst-Roussel Pharmaceuticals Incorporated, priority 1989, dated 1991)
